Measured values reported in PubChem BioAssay (NCI).
In brackets after ≈: the same amount, converted by molar mass. Several values for one entry are separate records, joined by “and”; a condition that tells them apart may be missing. Identical values can stand only once.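 A five-concentration, 48-hour dose response in 96-well plates underlies each endpoint, interpolated linearly between surrounding concentrations. GI50 is the concentration that inhibits growth by half. TGI denotes the concentration required for complete inhibition of growth.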

System: P388 leukemia
Assay: NCI tumour cell line growth inhibition, 48 h

SMILES	GI50
Cc1c[nH]c2c(O)cc3c(c12)[C@H](CCl)CN3C(=O)c1cc2cc(NC(=O)Nc3ccc4[nH]c(C(=O)N5C[C@@H](CCl)c6c5cc(O)c5[nH]cc(C)c65)cc4c3)ccc2[nH]1	0.000887 ng/mL and 0.888 ng/mL

System: P388/ADR leukemia
Assay: NCI tumour cell line growth inhibition, 48 h

SMILES	GI50	TGI
Cc1c[nH]c2c(O)cc3c(c12)[C@H](CCl)CN3C(=O)c1cc2cc(NC(=O)Nc3ccc4[nH]c(C(=O)N5C[C@@H](CCl)c6c5cc(O)c5[nH]cc(C)c65)cc4c3)ccc2[nH]1	0.888 ng/mL (≈ 0.00109 µM)	0.083 µg/mL (≈ 0.102 µM)

System: RXF-631 renal
Assay: NCI tumour cell line growth inhibition, 48 h

SMILES	TGI
O=C1OC(CC(=O)c2ccc(Cl)c(Cl)c2)C(Cl)=C1Cl (configuration not stated)	> 100 µM
CC(C)CS(=O)(=O)/C(=C(\c1ccc(Br)cc1)S(=O)(=O)CC(C)C)c1ccc(Br)cc1	> 100 µM
Cc1[nH]c2ccccc2c1C1Cc2ccccc2N1C(=O)/C=C\C(=O)O (configuration not stated)	> 100 µM
CCN(CC)CCCC(C)Nc1c2ccc(Cl)cc2nc2ccc(OC)cc12 (configuration not stated)	3.55 µM
CCN(CC)CC(O)CNc1ccc(NCC2CO2)c2c1C(=O)c1ccccc1C2=O (configuration not stated)	2.24 µM
CC[C@@H]1OC2(C)CC(S(=O)(=O)c3ccccc3O)CC1O2 (some centres not stated)	> 100 µM
C=CC1(C(=O)O)CCC(C(C)(C)C)CC1 (configuration not stated)	> 100 µM
NC(=O)C(=Cc1ccc(C(O)P(=O)(O)O)cc1)C(N)=O (configuration not stated)	> 100 µM
Cc1c(NC(=O)C(C)(C)Br)c(=O)oc2c(C)c3occc(=O)c3cc12	> 100 µM
O=C1c2ccccc2-c2cccc3ccc(Cc4ccc5ccccc5c4)c1c23	> 100 µM
COc1cc(Cl)c2c3c(c(C(C)=O)oc13)CCC2	> 100 µM
O=S(=O)(N/N=C/c1ccc(/C=N/NS(=O)(=O)c2ccccc2)cc1)c1ccccc1	> 100 µM
CCOC(=O)Nc1nc2ccc(Cn3cccc3)cc2[nH]1	> 100 µM
NNC(=O)/C(=C/c1ccc(Cl)c(Cl)c1)NC(=O)c1ccccc1	> 100 µM
